Results from publication PMC5995905, “Confirmation of high-throughput screening data and novel mechanistic insights into VDR-xenobiotic interactions by orthogonal assays” (Scientific Reports, 2018).
Where “and” joins values, the source holds several entries; their conditions need not be identical. Identical values can stand only once. Like-named read-outs stand apart in the source and are kept apart here.

Columns and labels:
[1] = molecular target: human VDR ligand-binding domain; set-up: method as in PMID 21543282; conditions: agonist mode; Tox21 qHTS data set; * = range of values; cited from earlier work
[2] = molecular target: T1, human VDR (Homo sapiens, UniProt P11473); assay: Transient transactivation assay (CYP24-Luc), agonist mode, HEK293T cells
T1 sequence (P11473 1-427): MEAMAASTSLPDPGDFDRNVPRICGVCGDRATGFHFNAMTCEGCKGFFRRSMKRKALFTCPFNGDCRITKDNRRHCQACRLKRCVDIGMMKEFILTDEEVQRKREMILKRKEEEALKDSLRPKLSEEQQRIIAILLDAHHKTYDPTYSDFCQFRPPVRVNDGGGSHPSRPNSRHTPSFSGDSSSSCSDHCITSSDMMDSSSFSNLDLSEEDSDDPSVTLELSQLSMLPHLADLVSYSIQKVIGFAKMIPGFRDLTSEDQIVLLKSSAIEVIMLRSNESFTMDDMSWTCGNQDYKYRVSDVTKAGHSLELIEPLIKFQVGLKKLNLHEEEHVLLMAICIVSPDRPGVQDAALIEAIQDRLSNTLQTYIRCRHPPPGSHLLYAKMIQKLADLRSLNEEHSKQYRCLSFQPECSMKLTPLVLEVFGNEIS

[3] = molecular target: VDR:SRC-1 (Homo sapiens, UniProt P11473); assay: Mammalian 2-hybrid assay, recruitment of coactivator SRC-1 by VDR, Cos7 cells; conditions: percentage of vitamin D3; for % Induction, pMSRC-1NR + EpSG5: agonists, -RXR (empty pSG5), conc. in Fig 5: ergocalciferol 60, lithocholic acid 50, calcipotriol 0.05, ethylphenol compound 40, 9 aminoacridine 50, tamoxifen citrate 20 μM
[4] = molecular target: T1, human VDR
[5] = molecular target: T2, VDR:RXR, VDR:SRC-1 and VDR:NCoR interactions (Homo sapiens, UniProt P11473); assay: Mammalian 2-hybrid assay, summary in words of VDR coregulator interactions; assay type: cell-based
T2 sequence (P11473 1-427): T1 sequence (P11473 1-427)

[6] = molecular target: T3, VDR:NCoR (Homo sapiens, UniProt P11473); assay: Mammalian 2-hybrid assay, recruitment of corepressor NCoR by VDR, Cos7 cells
T3 sequence (P11473 1-427): T1 sequence (P11473 1-427)

[7] = molecular target: human VDR ligand-binding domain; set-up: method as in PMID 21543282; conditions: read-out: Tox21 IC 50, cited from earlier work
[8] = molecular target: T1, human VDR; assay: Transient transactivation assay (CYP24-Luc), antagonist mode with 3 nM 1,25D3, HEK293T cells; assay type: cell-based
[9] = molecular target: T4, VDR:RXRα (Homo sapiens, UniProt P11473); assay: Mammalian 2-hybrid assay, recruitment of RXRα by VDR, Cos7 cells
T4 sequence (P11473 1-427): T1 sequence (P11473 1-427)

[10] = AC50 (μM), experimental AC50 as listed in Fig 4a, agonists
[11] = Derived AC50 (Transient transactivation assay), agonist mode, HEK293T cells, CYP24A1-Luc
[12] = agonists, orthogonal transient transactivation assay, HEK293T cells
[13] = top asymptote of Hill or Gain-Loss model, maximum response
[14] = Derived IC 50 (Transient transactivation assay)

Structure (SMILES)	AC50 [2, 10]	AC50 [2, 11]	Activity [2, 12]	% Induction, pMSRC-1NR + EpSG5 [3]	AC50 [1]	Derived Efficacy (fold induction) [4]	IC50 [7]	Fold Change (pMNCoR + EpSG5) [6]	Activity [8]	Derived Efficacy (fold inhibition) [8]	other results
Cc1cccc2c1cc1ccc3cccc4ccc2c1c34 [7 methyl benzo (a) pyrene]	–	–	–	–	2.54 µM	19.1624 fold induction	–	–	–	–	pattern of VDR:coregulator interaction facilitated by the ligand [5]: Interaction between VDR:RXR only in the presence of co transfected SRC-1; Activity [2]: Active; AC50 ([2]; Derived AC50 (Transient transactivation assay)): 10.6 µM
c1csc(-c2ccc(-c3cccs3)s2)c1 [Alpha-Terthiophene]	–	0.305 µM	Active	–	15.7 µM	19.9132 fold induction	–	–	–	–	pattern of VDR:coregulator interaction facilitated by the ligand [5]: Interaction between VDR:RXR only in the absence of full length SRC-1
COc1cccc2c1cc([N+](=O)[O-])c1c(C(=O)O)cc3c(c12)OCO3 [Aristolochic acid]	–	–	–	–	–	–	7320 nM	25.8	Active	76.1807 fold inhibition	pattern of change of 1,25D3 induced VDR:coregulator interaction [5]: enhanced the interaction between VDR:SRC-1 only in the absence of RXR; IC50 [8, 14]: 0.82 µM and 0.827 µM
[Cl][Cd][Cl] [Cadmium chloride]	–	–	–	–	–	–	171 nM	1.1	Active	44.5165 fold inhibition	pattern of change of 1,25D3 induced VDR:coregulator interaction [5]: enhanced recruitment of VDR:RXR and VDR:SRC-1 in both the presence and absence of co-expressed coregulators; IC50 ([8]; read-out: Derived IC 50 (Transient transactivation assay)): 0.38 µM; % Induction (pMRXRα + EpSG5) [9]: 175
C=C1/C(=C\C=C2/CCC[C@]3(C)[C@@H]([C@H](C)/C=C/[C@@H](O)C4CC4)CC[C@@H]23)C[C@@H](O)C[C@@H]1O [Calcipotriol, reference compound]	–	–	Active	142.9%	0.000294 µM	–	–	–	–	–	–
O=C(O)CCCc1ccc(N(CCCl)CCCl)cc1 [Chlorambucil, reference compound]	–	–	–	–	–	–	0.058 nM	0.9	Active	68.5251 fold inhibition	IC50 [8, 14]: 0.021 µM

More lines, main results first:

AC50 [2, 10]	AC50 [2, 11]	Activity [2, 12]	% Induction, pMSRC-1NR + EpSG5 [3]	Structure (SMILES)	AC50 [1]	Derived Efficacy (fold induction) [4]	IC50 [7]	Fold Change (pMNCoR + EpSG5) [6]	Activity [8]	Derived Efficacy (fold inhibition) [8]	other results
35.4 µM	36.8 µM	Active	7.2%	CCc1cc(Cc2cc(CC)cc(C(C)(C)C)c2O)c(O)c(C(C)(C)C)c1 [2,2′-methylenebis(6-tert-butyl-4-ethylphenol)]	52.6 µM	–	–	–	–	–	Derived Efficacy (fold induction) [2, 13]: 89.3748 fold induction
4.62 µM	9.32 µM	Active	8.2%	Cc1cc(Cc2cc(C)cc(C(C)(C)C)c2O)c(O)c(C(C)(C)C)c1 [2,2′-methylenebis(6-tert-butyl-4-methylphenol)]	32.1 µM	29.470 fold induction	–	–	–	–	–
10.9 µM	12.6 µM	Active	14.4%	Cl.Nc1c2ccccc2nc2ccccc12 [9 Aminoacridine monohydrochloride]	4.25 to 11.1 µM	44.5165 fold induction	–	–	–	–	Fold Change (pMNCoR + EpSG5) ([6]; agonists, -RXR, fold induction compared to DMSO, 9 aminoacridine at 50 μM in Fig 5): 67.7 fold
–	–	very weak agonist activity	–	CC(C)C[C@H](NC(=O)[C@H](CCc1ccccc1)NC(=O)CN1CCOCC1)C(=O)N[C@@H](Cc1ccccc1)C(=O)N[C@@H](CC(C)C)C(=O)[C@@]1(C)CO1 [Carfizomib, reference compound]	–	–	–	–	–	–	IC50 ([7]; antagonist mode, Tox21 qHTS data set): 748 nM; Activity ([8]; antagonists, transient transactivation assay in the presence of 3 nM 1,25D3): Active; Activity ([8]; antagonists, transient transactivation assay in the presence of 3 nM 1,25D3, listed as carfizomib): moderate to marked synergistic activity; IC50 ([8]; inhibition of 3 nM 1,25D3-induced response, HEK293T cells, unit given in Fig 3 legend, read-out: Derived IC 50 (Transient transactivation assay)): 0.53 µM and 0.538 µM; Derived Efficacy (fold inhibition) [8, 13]: 80.6485 fold inhibition; % Induction (pMSRC-1NR + RXRα) ([3]; antagonists with 1,25D3, +RXR, conc. in Fig 6: Cd chloride 12, dibutyltin dichloride 1, K dicyanoaurate 6, proscillaridin, aristolochic acid, carfizomib 12 μM): 296%; % Induction (pMRXRα + EpSG5) ([9]; antagonists with 1,25D3, -SRC-1, percentage of vitamin D3, conc. in Fig 6: phenylarsine oxide 0.37, dibutyltin dichloride 1, K dicyanoaurate 6, aristolochic acid, carfizomib 12, menadiol 3 μM): 1908.1%
